Like-named read-outs stand apart in the source and are kept apart here.
What was measured:
[1] = system: Influenza A and B; assay type: in vivo, mouse; conditions: given as +(n), route and dose not specified
[2] = system: Influenza A and B; assay: microbe, parasite or virus in culture; assay type: cell-based, chick embryo cells; conditions: read-out: Anti-influenza Activity CE cells IC50
[3] = primary chick embryo (CE) cells, influenza strain not given

Question: For Nc1nc(N)c2ncn([C@@H]3O[C@H](CO)[C@@H](O)[C@H]3F)c2n1 [Example 6, 2,6-Diamino-9-(2-deoxy-2-fluoro-β-D-ribofuranosyl)-9H-purine], which “Mouse log10 reduction in virus titre (Average of 5 Mice)” value (shortened to “Mouse log10 reduction in virus titre”) [1] is on record?
Answer: The value was 2.1 log10.

Question: And the IC50 ([2]; in Gallus gallus)?
Answer: The IC50 was 0.6 µM.

Question: Nc1nc2c(ncn2[C@@H]2O[C@H](CO)[C@@H](O)[C@H]2F)c(=O)[nH]1 [Example 7, 9-(2-Deoxy-2-fluoro-β-D-ribofuranosyl)guanine] was tested. Which “Mouse log10 reduction in virus titre” value [1] did it give?
Answer: The value was 2.4 log10.

Question: And the IC50 [2, 3]?
Answer: Its IC50 is 0.8 to 2 µM.

Question: How did the “Mouse log10 reduction in virus titre” value [1] turn out when Nc1ncnc2c1ncn2[C@@H]1O[C@H](CO)[C@@H](O)[C@H]1F [Example 8, 9-(2-Deoxy-2-fluoro-β-D-ribofuranosyl)adenine] was run?
Answer: Its value is 2.3 log10.

Question: What about the IC50 [2, 3] of the same compound?
Answer: The IC50 was 4 µM.

Question: With Nc1ncc2ncn([C@@H]3O[C@H](CO)[C@@H](O)[C@H]3F)c2n1 [Example 9, 2-Amino-9-(2-deoxy-2-fluoro-β-D-ribofuranosyl)-9H-purine] as the compound, how does the “Mouse log10 reduction in virus titre” value [1] read?
Answer: Its value is 1.6 log10.

Question: Which results are given for COc1nc(N)nc2c1ncn2[C@@H]1O[C@H](CO)[C@@H](O)[C@H]1F [Example 12, 2-Amino-9-(2-deoxy-2-fluoro-β-D-ribofuranosyl)-6-methoxy-9H-purine]?
Answer: Mouse log10 reduction in virus titre (Average of 5 Mice) [1]: 1.9 log10; IC50 [2, 3]: 0.4 µM
